Test [1] concerns the target T1, AA111-228 DNA-binding domain of RXR-alpha (RXRa-DBD) (Homo sapiens, UniProt P19793).
T1 construct: purchased Abcam, Cambridge, MA
T1 sequence (P19793 111-228): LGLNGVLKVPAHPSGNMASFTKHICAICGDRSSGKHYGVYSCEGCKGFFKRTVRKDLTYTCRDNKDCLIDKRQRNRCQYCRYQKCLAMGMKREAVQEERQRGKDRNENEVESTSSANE
The test can be described thus: Experiment 4A binding to RXRa-DBD. The following applies: 1 ug/well RXRa-DBD; 800 ng/well SA488-labelled peptide, 60 min; background subtracted. The procedure: Experiment 4A. Binding of immodulin peptides to AA111-228 DNA-binding domain of RXR-alpha (RXRa-DBD). 1 ug/well recombinant RXRa-DBD (Abcam, Cambridge, MA) was adsorbed to wells of a 96-well plate for 60 minutes at room temperature, then blocked with 200 uL 1% bovine serum albumin (BSA) in PBS buffer overnight. Plate was washed and 800 ng/well Streptavidin-Alexa 488 conjugate (SA488)-labelled immX peptide was added. The plate was incubated for 60 min at room temperature, washed and counted in a standard fluorometer (excitation/emission 485/525 nm). Background (buffer alone) was subtracted.

In test [2] the test system is HFF-1 human fibroblast cell line. The test can be described thus: Collagen-1 ELISA in HFF-1 dermal fibroblasts. Type of test: cell-based. The following applies: peptide 2 uM, 72 hour incubation. The procedure: Immodulin peptides have potential untility in the field of cosmetics. HFF-1 human fibroblast cell line was obtained from the American Type Culture Collection (ATCC). Cells were grown in a T-75 flask in DMEM Medium containing 10% fetal bovine serum and penicillin-streptomycin at 37° C. in a humidified, 5% CO2 incubator. Cells (100 µl, 2,000 cells/well) were plated in a 96-well plate and incubated overnight at 37° C. in a humidified, 5% CO2 incubator. Next day, 10 µl/well of compounds were added (quadruplicate wells). After 72 hour incubation with the compound, supernatants were collected for Collagen-1 ELISA assay and cell viability was measured in a luminometer after the addition of 100 IL/well CellTiterGlo reagent (Promega Inc, Madison, WI) as recommended by the manufacturer. Collagen stimulating activity of immodulin peptides in HFF-1 dermal fibroblasts: Peptides were added to cells at 2 uM. COL1 immunoreactivity was measured in the supernatants of cultured cells by ELISA using a rabbit monoclonal anti-COL1 primary antibody (Abcam, Cambridge, MA). Control (buffer) value of immunoreactivity was set to 100.
On the technique in general: ELISA stands for enzyme-linked immunosorbent assay.

For a further test, the target named is T2, PPAR-gamma (Homo sapiens, UniProt P37231).
T2 construct: 400 ng/well full length RXR-alpha, RXR-beta, RXR-gamma or PPAR-gamma; purchased Abcam, Cambridge, MA
T2 sequence (P37231 1-505): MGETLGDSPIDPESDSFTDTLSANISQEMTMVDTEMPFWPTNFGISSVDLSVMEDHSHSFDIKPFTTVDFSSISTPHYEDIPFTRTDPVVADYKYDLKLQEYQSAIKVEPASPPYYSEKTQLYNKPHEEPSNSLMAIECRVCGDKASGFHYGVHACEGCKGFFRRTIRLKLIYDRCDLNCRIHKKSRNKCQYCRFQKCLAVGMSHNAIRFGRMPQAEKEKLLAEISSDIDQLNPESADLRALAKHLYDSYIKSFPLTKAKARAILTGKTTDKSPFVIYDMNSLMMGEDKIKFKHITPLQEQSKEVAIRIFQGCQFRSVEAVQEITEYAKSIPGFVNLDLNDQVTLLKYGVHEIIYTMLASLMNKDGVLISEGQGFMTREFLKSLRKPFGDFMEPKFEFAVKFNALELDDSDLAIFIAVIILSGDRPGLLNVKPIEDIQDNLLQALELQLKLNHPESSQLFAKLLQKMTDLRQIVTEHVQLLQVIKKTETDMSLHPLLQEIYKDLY
The test can be described thus: Experiment 4B binding to full length PPAR-gamma. The conditions noted are these: 400 ng/well protein; 800 ng/well SA488-labelled peptide, 2 hours. As to the method: (§1) Experiment 4B. Binding of immodulin peptides to RXR isoforms and domains. 100 ng/well recombinant human RXRa-DBD or RXRa-LBD, or 400 ng/well full length RXR-alpha, RXR-beta, RXR-gamma or PPAR-gamma (Abcam, Cambridge, MA) was adsorbed to wells of a 96-well plate for 60 minutes at room temperature, then blocked with 200 uL 1% BSA in PBS buffer overnight. The plate was washed with PBS and 800 ng/well Streptavidin-Alexa 488 conjugate (SA488)-labelled peptide was added. The plate was incubated for 2 hours at room temperature, washed and counted in a fluorometer (excitation/emission 485/525 nm). Significant binding above background is also shown (**p<0.05). […] When tested against domains of RXR-alpha, these peptides bind the DNA-binding domain (DBD) better than the ligand-binding domain (LBD).

A short description of test [3]: Experiment 4D binding to FITC-labelled hyaluronic acid. The following applies: biotinylated peptide 1 ug/well; 1 ug FITC-labelled hyaluronic acid, 90 minutes. As to the method: (§2) Streptavidin-coated 96-well plates (G-Biosciences, St. Louis, MO) were pre-treated with biotinylated peptides [see Example 1 for key] at 1 ug/well, at room temperature for 60 minutes. The plate was washed with PBS buffer and then 1 ug FITC-labelled heparin or hyaluronic acid in 100 uL PBS buffer was added per well (all tests in quadruplicate). Incubation proceeded for 90 minutes at room temperature, followed by two PBS washes. The plate was read in a standard laboratory fluorometer (488/525 nm exitation/[…]) and the counts normalized for immX3 peptide binding=100. Values statistically above background are shown in bold font. **p<0.05 versus immX3AVD.

A further test addresses T3, RXR-alpha DBD (Homo sapiens, UniProt P19793).
T3 construct: purchased Abcam, Cambridge, MA
T3 sequence (P19793 111-228): T1 sequence (P19793 111-228)
The test can be described thus: Experiment 4B binding to RXR-alpha DBD. The following applies: 100 ng/well protein; 800 ng/well SA488-labelled peptide, 2 hours. As to the method:
as §1

Test [4] is described as follows: Experiment 4D binding to FITC-labelled heparin. The conditions noted are these: biotinylated peptide 1 ug/well; 1 ug FITC-labelled heparin, 90 minutes. The procedure:
as §2

The source of these data is US12410220B2, “Modulation of mammalian cell lineage by synthetic immodulins” (priority 2021, dated 2025).

Marks after values point to notes of the source that are not given here. Peptide text beside a SMILES is read from it.

For `CC[C@H](C)[C@H](NC(=O)CNC(=O)[C@H](CCCNC(=N)N)NC(=O)[C@H](CCCCN)NC(=O)[C@H](CCCNC(=N)N)NC(=O)CNC(=O)[C@H](CCCNC(=N)N)NC(=O)[C@H](CO)NC(=O)[C@@H]1CCCN1C(=O)[C@H](CCCCN)NC(=O)[C@H](CS)NC(=O)[C@H](CCC(N)=O)NC(=O)[C@H](CCCCN)NC(=O)[C@H](CCCNC(=N)N)NC(=O)[C@H](CCCCN)NC(=O)[C@H](Cc1ccc(O)cc1)NC(=O)[C@H](Cc1ccccc1)NC(=O)CNC(=O)[C@H](CCCCN)NC(=O)[C@@H](N)CCCNC(=N)N)C(=O)N[C@@H](CS)C(=O)N[C@@H](Cc1c[nH]c2ccccc12)C(=O)O` [imm5] (H-RKGFYKRKQCKPSRGRKRGICW-OH; N-terminus and C-terminus assumed), the “Fluorescence, binding to RXRa-DBD” value in test [1] is on record as 6,802±336. For the same compound, the “COL1 immunoreactivity in supernatants, control (buffer) set to 100” value (“COL1 immunoreactivity in supernatants” for short) in test [2] was 93. In addition, the “Binding to PPAR-gamma relative to imm3 binding (=100)” value on PPAR-gamma was found to be 1.6 ± 0.4. In test [3], the “Hyaluronate binding, counts normalized for immX3 peptide binding=100” value (from here on “Hyaluronate binding, counts normalized”) was 60.0 ± 8.6**. Moreover, on RXR-alpha DBD, the “Binding to RXR-alpha DBD relative to imm3 binding (=100)” value was 22.7 ± 3.1**. Also, in test [4], the “Heparin binding, counts normalized for immX3 peptide binding=100” value (“Heparin binding, counts normalized” below) is listed as 95.1 ± 25.7.

As to `CC(C)C[C@H](NC(=O)[C@H](C)NC(=O)[C@@H]1CCCN1C(=O)[C@H](Cc1c[nH]cn1)NC(=O)[C@H](CS)NC(=O)[C@H](CCC(N)=O)NC(=O)[C@H](CCCCN)NC(=O)[C@@H]1CCCN1C(=O)[C@H](Cc1c[nH]cn1)NC(=O)[C@H](Cc1ccccc1)NC(=O)[C@H](CC(N)=O)NC(=O)CNC(=O)[C@H](CC(N)=O)NC(=O)[C@@H](N)CCCNC(=N)N)C(=O)N[C@@H](CC(=O)O)C(=O)NCC(=O)N[C@@H](CCC(N)=O)C(=O)N[C@@H](CCCNC(=N)N)C(=O)NCC(=O)N[C@@H](CCCCN)C(=O)N[C@@H](CS)C(=O)N[C@@H](Cc1c[nH]c2ccccc12)C(=O)O` [imm4] (H-RNGNFHPKQCHPALDGQRGKCW-OH; N-terminus and C-terminus assumed), the “Fluorescence, binding to RXRa-DBD” value in test [1] is reported as 27±31. The “COL1 immunoreactivity in supernatants” value in test [2] was 105. For the same compound, the “Binding to PPAR-gamma relative to imm3 binding (=100)” value on PPAR-gamma is on record as 0.1 ± 0.0. Also, the “Hyaluronate binding, counts normalized” value in test [3] turned out to be 14.6 ± 22.6. For the same compound, the “Binding to RXR-alpha DBD relative to imm3 binding (=100)” value on RXR-alpha DBD is recorded as 3.2 ± 2.0. In test [4], the “Heparin binding, counts normalized” value was found to be 6.8 ± 24.1.

On to `N=C(N)NCCC[C@H](NC(=O)CNC(=O)[C@H](CCCCN)NC(=O)[C@H](CO)NC(=O)[C@@H]1CCCN1C(=O)[C@H](CCCNC(=N)N)NC(=O)[C@H](CS)NC(=O)[C@H](CCC(N)=O)NC(=O)[C@H](CCCCN)NC(=O)[C@H](CCCCN)NC(=O)[C@H](CCCCN)NC(=O)[C@H](Cc1ccc(O)cc1)NC(=O)[C@H](Cc1ccccc1)NC(=O)CNC(=O)[C@H](CCCCN)NC(=O)[C@@H](N)CCCCN)C(=O)N[C@@H](CCCCN)C(=O)N[C@@H](CCCNC(=N)N)C(=O)NCC(=O)N[C@@H](Cc1ccccc1)C(=O)N[C@@H](CS)C(=O)N[C@@H](Cc1c[nH]c2ccccc12)C(=O)O` [imm3] (H-KKGFYKKKQCRPSKGRKRGFCW-OH; N-terminus and C-terminus assumed), for which the “Fluorescence, binding to RXRa-DBD” value in test [1] was 6,572±129. The “COL1 immunoreactivity in supernatants” value in test [2] is 101. The “Binding to PPAR-gamma relative to imm3 binding (=100)” value on PPAR-gamma was 2.1 ± 1.4. In addition, the “Hyaluronate binding, counts normalized” value in test [3] was 57.2 ± 5.7**. Moreover, on RXR-alpha DBD, the “Binding to RXR-alpha DBD relative to imm3 binding (=100)” value is given as 22.2 ± 2.4**. In test [4], the “Heparin binding, counts normalized” value came out at 104.2 ± 22.0.

With `N=C(N)NCCC[C@H](NC(=O)[C@H](CCCNC(=N)N)NC(=O)[C@H](CCC(N)=O)NC(=O)CNC(=O)[C@H](CCC(N)=O)NC(=O)[C@H](CO)NC(=O)[C@H](CO)NC(=O)[C@H](CCCNC(=N)N)NC(=O)[C@H](CS)NC(=O)[C@H](CCC(N)=O)NC(=O)[C@H](CCCNC(=N)N)NC(=O)[C@H](CCCCN)NC(=O)[C@H](CCCNC(=N)N)NC(=O)[C@H](Cc1ccc(O)cc1)NC(=O)[C@H](Cc1ccccc1)NC(=O)CNC(=O)[C@H](CCCNC(=N)N)NC(=O)[C@@H](N)Cc1c[nH]cn1)C(=O)NCC(=O)N1CCC[C@H]1C(=O)N[C@@H](CS)C(=O)N[C@@H](Cc1c[nH]c2ccccc12)C(=O)O` [imm6] (H-HRGFYRKRQCRSSQGQRRGPCW-OH; N-terminus and C-terminus assumed), in test [1], the “Fluorescence, binding to RXRa-DBD” value stood at 587±192. In addition, in test [2], the “COL1 immunoreactivity in supernatants” value was found to be 112. Besides, the “Binding to PPAR-gamma relative to imm3 binding (=100)” value at PPAR-gamma amounted to 6.8 ± 2.0. Moreover, in test [3], the “Hyaluronate binding, counts normalized” value is listed as 44.9 ± 14.1**. On RXR-alpha DBD, the “Binding to RXR-alpha DBD relative to imm3 binding (=100)” value is listed as 22.9 ± 2.1**. The “Heparin binding, counts normalized” value in test [4] was determined as 97.2 ± 17.3.
